In paper PMC5994920 (European journal of medicinal chemistry, 2017):

Columns and labels:
[1] = tested on: U937 human tumor xenografts; experiment: In vivo antitumor assay, U937 xenograft model; conditions: for Body weight loss compared with the control group (toxicity): oral, MS275 50 mg/kg/day, 11a 100 mg/kg/day
[2] = tested on: acetylated histone H3, acetylated histone H4, procaspase-3, cleaved caspase-3 and cleaved PARP; experiment: Western blot analysis in HL60 cells; type: cell-based, human; conditions: 48 h treatment
[3] = Intracellular fluid concentration; type: in vitro ADME; conditions: preliminary results, data not shown
[4] = Lip-water partition coefficient; type: physicochemical; conditions: compound concentration in n-octyl alcohol 5 mM
[5] = tested on: HCT116 human tumor xenografts; experiment: In vivo antitumor assay, HCT116 xenograft model; conditions: oral, 11a 100 mg/kg, SAHA 100 mg/kg, MS275 50 mg/kg

Row | Intracellular fluid concentration, times lower than 11a [3] | Detection in water phase in LogP test (water solubility) [4] | SMILES | Body weight loss compared with the control group (toxicity) [1] | Level of acetylated histone H3 and acetylated histone H4 (western blot) [2] | Levels of procaspase-3, cleaved caspase-3 and cleaved PARP (western blot) [2] | Body weight loss compared with the control group [5] | Body weight loss ([1]; first experiment, 100 mg/kg/day oral, three days later)
1 |  |  | COc1ccc(C(=O)N[C@@H](Cc2c[nH]c3ccccc23)C(=O)NCc2ccc(C(=O)Nc3ccccc3N)cc2)cc1 [Compound 11a, (S)-4-((3-(1H-indol-3-yl)-2-(4-methoxybenzamido)propanamido)methyl)-N-(2-aminophenyl)benzamide] | This toxicity didn’t appear | markedly increase | dramatically reduced the level of procaspase-3 and increased the level of cleaved caspased-3 and cleaved PARP |  | 
2 | more than 10 times | could hardly detect 56c in water phase | COc1ccc(C(=O)N[C@@H](Cc2c[nH]c3ccccc23)C(=O)NCc2ccc(C(=O)Nc3cc(-c4ccccc4)ccc3N)cc2)cc1 [Compound 56c, (S)-4-((3-(1H-indol-3-yl)-2-(4-methoxybenzamido)propanamido)methyl)-N-(4-amino-[1,1’-biphenyl]-3-yl)benzamide] |  | much less effects | could be hardly affected |  | 
3 |  |  | Nc1ccccc1NC(=O)c1ccc(CNC(=O)OCc2cccnc2)cc1 [MS275] | obvious body weight loss |  | dramatically reduced the level of procaspase-3 and increased the level of cleaved caspased-3 and cleaved PARP | serious body weight loss was observed | serious body weight loss
